The text below walks through data of US11077115B2, “Rorgamma modulators and uses thereof” (Genfit, priority 2017, dated 2021).

In one data set the target is T1, human RORγt (Homo sapiens, UniProt P51449).
T1 sequence (P51449 1-497 isoform P51449-2): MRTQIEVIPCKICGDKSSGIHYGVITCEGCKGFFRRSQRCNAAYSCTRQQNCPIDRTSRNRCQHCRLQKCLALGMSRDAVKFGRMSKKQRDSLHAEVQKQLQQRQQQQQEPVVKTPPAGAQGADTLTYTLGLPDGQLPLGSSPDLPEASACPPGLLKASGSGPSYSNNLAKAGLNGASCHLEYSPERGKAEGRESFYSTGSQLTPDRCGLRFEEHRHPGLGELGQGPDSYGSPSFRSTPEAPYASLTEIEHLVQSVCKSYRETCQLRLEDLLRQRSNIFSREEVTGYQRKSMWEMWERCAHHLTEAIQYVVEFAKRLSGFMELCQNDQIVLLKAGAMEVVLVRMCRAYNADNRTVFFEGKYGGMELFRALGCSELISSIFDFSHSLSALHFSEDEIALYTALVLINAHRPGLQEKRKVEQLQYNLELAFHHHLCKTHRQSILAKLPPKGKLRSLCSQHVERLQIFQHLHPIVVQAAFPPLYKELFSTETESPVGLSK
The data set can be described thus: RORE Luciferase/RORγt transactivation assay (IL-17 promoter luciferase reporter in COS-7 cells). It is filed as cell-based. More on the design: V5-His (named only through the vector pcDNA3.1D/V5-His-TOPO); expressed in transfected cells; host or cells: COS-7 (monkey kidney). The following applies: RORγt activity inhibition, luciferase activity in transfected COS-7 cells, 20 h. The protocol: It is well known that RORγ binds to a conserved non-coding sequence (CNS) enhancer element in the IL-17 promoter.
Culture medium was changed every 2 days.
The 4.3 Kb human IL-17 promoter containing the RORγ-specific CNS enhancer element was PCR amplified from human genomic DNA and cloned into a pGL3-TKLuc2Cp reporter plasmid.
The luciferase reporter plasmid and the RORγt overexpression plasmid were transfected into COS-7 cell line using 4 μL JetPEI™/μg of DNA. Briefly, 150 ng of DNA (ration 1/2 between RORE-Tk Luc2Cp and cDNA RORγt or the empty vector for the negative control) was served to transfect adherent COS-7 cells in a […] culture flask, in complete medium (see cos-7 cell line culture).
Cells were then detached (using trypsin) and washed by centrifugation at 300 g for 10 minutes. Cell pellet was resuspended in serum free/phenol red free DMEM and seeded in 384 well plates at a density of 10000 cells/well and then incubated for 4 h at 37° C.
Compounds were dissolved in 100% DMSO to obtain 10 mM stock solutions. For each compound, test concentrations were diluted in serum free/phenol red free DMEM using the Genesis Freedom 200™ (TECAN) and added to the cells to obtain a 0.3% DMSO final concentration (in a final volume of 40 μL per well).
The luciferase activity was then measured with 40 μL/well steady-Glo Luciferase assay system (Promega, Madison, Wis.) and after incubation at room temperature for 30 minutes. The luminescence was estimated using the Ultra384 reader (TECAN). Data were collected and analyzed using GraphPad Prism software (GraphPad Software V5.02, San Diego Calif. USA). IC50 in μM and E max in % were reported for each compound.

Structures can show the parent of a compound that is named as a salt.

With `Cc1ccc(C(NC(=O)C2(c3ccc(N4CCS(=O)(=O)CC4)c(Br)c3)CC2)c2ccc(C)o2)c(N2CCCCC2)c1` (centres unmarked) (as salt: HCl) [Cpd. 37, 1-[3-bromo-4-(1,1-dioxo-1-thiomorpholin-4-yl)phenyl]-N-{[4-methyl-2-(piperidin-1-yl)phenyl](5-methylfuran-2-yl)methyl}cyclopropane-1-carboxamide], the melting point was 106 °C. Still for that read-out and setting: the same measure for `Cc1ccc(C(NC(=O)Cc2ccc(N3CCS(=O)(=O)CC3)c(C)c2)c2ccccc2)c(N2CC3CC3C2)c1` (centres unmarked) (as salt: HCl) [Cpd. 23, N-[(2-{3-azabicyclo[3.1.0]hexan-3-yl}-4-methylphenyl)(phenyl)methyl]-2-[4-(1,1-dioxo-1-thiomorpholin-4-yl)-3-methylphenyl]acetamide]: 109 °C; for `COc1ccc(C(NC(=O)Cc2ccc(N3CCS(=O)(=O)CC3)c(C)c2)c2ccc(C)o2)c(N(C)C)c1` (centres unmarked) (as salt: HCl) [Cpd. 15, N-{[2-(dimethylamino)-4-methoxyphenyl](5-methylfuran-2-yl)methyl}-2-[4-(1,1-dioxo-1-thiomorpholin-4-yl)-3-methylphenyl]acetamide]: 98 °C. On the same count and under the same terms, the value for `Cc1ccc(C(NC(=O)Cc2cc(N3CCOCC3)ccc2F)c2ccccc2)c(N2CCCCC2)c1` (centres unmarked) (as salt: HCl) [Cpd. 8, 2-[2-fluoro-5-(morpholin-4-yl)phenyl]-N-{[4-methyl-2-(piperidin-1-yl)phenyl](phenyl)methyl}acetamide] was 82 °C; that for `Cc1ccc(C(NC(=O)C2(c3cnc(N4CCS(=O)(=O)CC4)nc3)CC2)c2ccc(C)o2)c(Cl)c1` (centres unmarked) (as salt: HCl) [Cpd. 52, N-[(2-chloro-4-methylphenyl)(5-methylfuran-2-yl)methyl]-1-[2-(1,1-dioxo-1-thiomorpholin-4-yl)pyrimidin-5-yl]cyclopropane-1-carboxamide] was 98 °C. In the case of `COc1ccc(C(NC(=O)Cc2ccc(N3CCS(=O)(=O)CC3)c(C)c2)c2ccc(C)o2)c(N2CCC(C)CC2)c1` (centres unmarked) (as salt: HCl) [Cpd. 13, 2-[4-(1,1-dioxo-1-thiomorpholin-4-yl)-3-methylphenyl]-N-{[4-methoxy-2-(4-methylpiperidin-1-yl)phenyl](5-methylfuran-2-yl)methyl}acetamide], the melting point was 101 °C. `Cc1ccc(C(NC(=O)Cc2ccc(N3CCOCC3)nc2)c2ccc(C)o2)c(N2CCCCC2)c1` (centres unmarked) (as salt: HCl) [Cpd. 25, N-{[4-methyl-2-(piperidin-1-yl)phenyl](5-methylfuran-2-yl)methyl}-2-[6-(morpholin-4-yl)pyridin-3-yl]acetamide]: the melting point was 61 °C. For `Cc1ccc(C(NC(=O)C2(c3ccc(N4CCS(=O)(=O)CC4)c(C)n3)CC2)c2ccc(C)o2)c(C)c1` (centres unmarked) (as salt: HCl) [Cpd. 71, N-[(2,4-dimethylphenyl)(5-methylfuran-2-yl)methyl]-1-[5-(1,1-dioxo-1-thiomorpholin-4-yl)-6-methylpyridin-2-yl]cyclopropane-1-carboxamide], the melting point was 74 °C.

The molecule `Cc1ccc(C(NC(=O)Cc2cnc(N3CCS(=O)(=O)CC3)nc2C)c2ccc(C)o2)c(C)c1` (centres unmarked) (as salt: HCl) [Cpd. 42, N-[(2,4-dimethylphenyl)(5-methylfuran-2-yl)methyl]-2-[2-(1,1-dioxo-1-thiomorpholin-4-yl)-4-methylpyrimidin-5-yl]acetamide] registered a melting point of 211 °C.

Regarding `Cc1ccc(C(NC(=O)Cc2ccc(N3CCS(=O)(=O)CC3)c(C)c2)c2ccc(C)o2)c(Br)c1` (centres unmarked) (as salt: HCl) [Cpd. 11, N-[(2-bromo-4-methylphenyl)(5-methylfuran-2-yl)methyl]-2-[4-(1,1-dioxo-1-thiomorpholin-4-yl)-3-methylphenyl]acetamide], the melting point is 110 °C.

As to `COc1ccc(C(NC(=O)C2(c3ccc(N4CCS(=O)(=O)CC4)cc3)CC2)c2ccc(C)o2)c(C)c1` (centres unmarked) (as salt: HCl) [Cpd. 44, 1-[4-(1,1-dioxo-1-thiomorpholin-4-yl)phenyl]-N-[(4-methoxy-2-methylphenyl)(5-methylfuran-2-yl)methyl]cyclopropane-1-carboxamide], the melting point turned out to be 77 °C. The same measure, in the same setting: the value for `Cc1ccc(C(NC(=O)C2(c3cccc(N4CCS(=O)(=O)CC4)c3)CC2)c2ccc(C)o2)c(C)c1` (centres unmarked) (as salt: HCl) [Cpd. 68, N-[(2,4-dimethylphenyl)(5-methylfuran-2-yl)methyl]-1-[3-(1,1-dioxo-1-thiomorpholin-4-yl)phenyl]cyclopropane-1-carboxamide] was 72 °C; that for `Cc1ccc(C(NC(=O)C2(c3cnc(N4CCS(=O)(=O)CC4)nc3)CC2)c2ccc(Cl)cc2C)o1` (centres unmarked) (as salt: HCl) [Cpd. 53, N-[(4-chloro-2-methylphenyl)(5-methylfuran-2-yl)methyl]-1-[2-(1,1-dioxo-1-thiomorpholin-4-yl)pyrimidin-5-yl]cyclopropane-1-carboxamide] was 162 °C.

`Cc1ccc(C(NC(=O)C2(c3cc(N4CCS(=O)(=O)CC4)ccc3C)CC2)c2ccc(C)o2)c(C)c1` (centres unmarked) (as salt: HCl) [Cpd. 70, N-[(2,4-dimethylphenyl)(5-methylfuran-2-yl)methyl]-1-[5-(1,1-dioxo-1-thiomorpholin-4-yl)-2-methylphenyl]cyclopropane-1-carboxamide] had a melting point of 86 °C. `Cc1ccc(C(NC(=O)C2(c3ccc(N4CCS(=O)(=O)CC4)cn3)CC2)c2ccc(C)o2)c(C)c1` (centres unmarked) [Cpd. 73, N-[(2,4-dimethylphenyl)(5-methylfuran-2-yl)methyl]-1-[5-(1,1-dioxo-1-thiomorpholin-4-yl)pyridin-2-yl]cyclopropane-1-carboxamide]: the half-inhibitory concentration (IC50) against human RORγt was 0.1 to 1 µM. On the same count and under the same terms, the value for `Cc1ccc(C(NC(=O)Cc2cnc(N3CCS(=O)(=O)CC3)nc2)c2ccc(Cl)cc2Cl)o1` (centres unmarked) [Cpd. 50, N-[(2,4-dichlorophenyl)(5-methylfuran-2-yl)methyl]-2-[2-(1,1-dioxo-1-thiomorpholin-4-yl)pyrimidin-5-yl]acetamide] was 1 to 10 µM. Still for that read-out and setting: the value for `COCc1ccc(CC(=O)NC(c2ccc(C)o2)c2ccc(C)cc2N2CCCCC2)cc1N1CCS(=O)(=O)CC1` (centres unmarked) [Cpd. 62, 2-[3-(1,1-dioxo-1-thiomorpholin-4-yl)-4-(methoxymethyl)phenyl]-N-{[4-methyl-2-(piperidin-1-yl)phenyl](5-methylfuran-2-yl)methyl}acetamide] was 0.1 to 1 µM.

As to `Cc1ccc(C(NC(=O)Cc2ccc(N3CCS(=O)(=O)CC3)c(O)c2)c2ccc(C)o2)c(N2CCCCC2)c1` (centres unmarked) [Cpd. 61, 2-[4-(1,1-dioxo-1-thiomorpholin-4-yl)-3-hydroxyphenyl]-N-{[4-methyl-2-(piperidin-1-yl)phenyl](5-methylfuran-2-yl)methyl}acetamide], the IC50 on human RORγt was under 0.1 µM. On the same count and under the same terms, the same measure for `Cc1ccc(C(NC(=O)Cc2cnc(N3CCS(=O)(=O)CC3)nc2)c2ccc(C)o2)c(C(F)(F)F)c1` (centres unmarked) [Cpd. 33, 2-[2-(1,1-dioxo-1-thiomorpholin-4-yl)pyrimidin-5-yl]-N-{[4-methyl-2-(trifluoromethyl)phenyl](5-methylfuran-2-yl)methyl}acetamide]: 1 to 10 µM. Same read-out and setting: the same measure for `Cc1ccc(C(NC(=O)Cc2ccc(CO)c(N3CCS(=O)(=O)CC3)c2)c2ccc(C)o2)c(N2CCCCC2)c1` (centres unmarked) [Cpd. 63, 2-[3-(1,1-dioxo-1-thiomorpholin-4-yl)-4-(hydroxymethyl)phenyl]-N-{[4-methyl-2-(piperidin-1-yl)phenyl](5-methylfuran-2-yl)methyl}acetamide]: 0.1 to 1 µM.
